Results reported in US6046217A, “2,3,5-trisubstituted pyridines as inhibitors of cyclooxygenase-2” (Merck Frosst Canada & Co., priority 1998, dated 2000).
Read-outs that look alike come from different tables or passages of the source.

Legend:
COX-1 = COX-1 (Homo sapiens, UniProt P23219); assay: Assay of COX-1 activity from U937 cell microsomes (PGE2); assay type: biochemical; set-up: Assay of COX-1 Activity from U937 Cell Microsomes; endogenous in cells; host or cells: U937 cells, 100,000 x g microsomal pellet; conditions: U-937 cell microsomes, 15 min preincubation; read-out: COX-1 (IC50 mM) U-937
Description: U 937 cells are pelleted by centrifugation at 500×g for 5 min and washed once with phosphate-buffered saline and repelleted. Cells are resuspended in homogenization buffer consisting of 0.1 M Tris-HCl, pH 7.4, 10 mM EDTA, […] leupeptin, 2 μg/ml soybean trypsin inhibitor, 2 μg/ml aprotinin and 1 mM phenyl methyl sulfonyl fluoride. The cell suspension is sonicated 4 times for 10 sec and is centrifuged at 10,000×g for 10 min at 4° C. The supernatant is centrifuged at 100,000×g for 1 hr at 4° C. The 100,000×g microsomal pellet is resuspended in 0.1 M Tris-HCl, pH 7.4, 10 mM EDTA to approximately 7 mg protein/ml and stored at -80° C.
Microsomal preparations are thawed immediately prior to use, subjected to a brief sonication, and then diluted to a protein concentration of 125 μg/ml in 0.1 M Tris-HCl buffer, pH 7.4 containing 10 mM EDTA, 0.5 mM phenol, 1 mM reduced glutathione and 1 μM hematin. Assays are performed in duplicate in a final volume of 250 μl. Initially, 5 μl of DMSO vehicle or drug in DMSO are added to 20 μl of 0.1 M Tris-HCl buffer, pH 7.4 containing 10 mM EDTA in wells of a 96-deepwell polypropylene titre plate. 200 μl of the microsomal preparation are then added and pre-incubated for 15 min at room temperature before addition of 25 μl of […] arachidonic acid in […] Tris-HCl and 10 mM EDTA, pH 7.4. Samples are incubated for 40 min at room temperature and the reaction is stopped by the addition of 25 μl of 1 N HCl. Samples are neutralized with 25 μl of 1 N NaOH prior to quantitation of PGE2 content by radioimmunoassay (Dupont-NEN or Amersham assay kits). Cyclooxygenase activity is defined as the difference between PGE2 levels in samples incubated in the presence of arachidonic acid and ethanol vehicle.
In the assay, inhibition is determined by measuring the amount of prostaglandin E2 (PGE2) synthesized in the presence of arachidonic acid, cyclooxygenase-1 or cyclooxygenase-2 and a putative inhibitor.

COX-2 [1] = target: T1, COX-2 (Homo sapiens, UniProt P35354); assay: cell-based; conditions: human whole blood, LPS-induced PGE2, 24 h; read-out: COX-2 (IC50 mM) HWB
T1 sequence (P35354 18-604): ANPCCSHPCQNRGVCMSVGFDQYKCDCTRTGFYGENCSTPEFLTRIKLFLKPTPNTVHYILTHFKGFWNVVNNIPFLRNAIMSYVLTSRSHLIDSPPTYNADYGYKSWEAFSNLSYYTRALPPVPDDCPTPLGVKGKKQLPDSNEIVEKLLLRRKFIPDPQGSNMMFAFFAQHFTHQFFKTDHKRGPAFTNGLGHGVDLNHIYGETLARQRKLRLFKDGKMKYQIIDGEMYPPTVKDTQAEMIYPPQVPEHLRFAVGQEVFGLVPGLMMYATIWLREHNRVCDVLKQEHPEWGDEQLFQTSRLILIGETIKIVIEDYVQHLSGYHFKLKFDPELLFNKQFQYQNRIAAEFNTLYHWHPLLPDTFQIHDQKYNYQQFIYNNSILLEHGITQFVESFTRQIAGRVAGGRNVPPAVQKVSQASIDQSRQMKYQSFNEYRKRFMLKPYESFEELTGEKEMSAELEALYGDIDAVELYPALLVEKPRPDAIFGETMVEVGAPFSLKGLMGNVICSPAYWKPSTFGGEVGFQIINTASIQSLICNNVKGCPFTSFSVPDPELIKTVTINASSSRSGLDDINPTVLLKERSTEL
Source text: As well, platelets in whole blood contain a large amount of the COX-1 enzyme. Immediately following blood clotting, platelets are activated through a thrombin-mediated mechanism. This reaction results in the production of thromboxane B2 (TxB2) via activation of COX-1. Thus, the effect of test compounds on TxB2 levels following blood clotting can be examined and used as an index for COX-1 activity. Therefore, the degree of selectivity by the test compound can be determined by measuring the levels of PGE2 after LPS induction (COX-2) and TxB2 following blood clotting (COX-1) in the same assay.
Fresh blood is collected in heparinized tubes by venipuncture from both male and female volunteers. The subjects have no apparent inflammatory conditions and have not taken any NSAIDs for at least 7 days prior to blood collection. Plasma is immediately obtained from a 2mL blood aliquot to use as blank (basal levels of PGE2). The remaining blood is incubated with LPS (100 μg/ml final concentration, Sigma Chem, #L-2630 from E. coli; diluted in 0.1% BSA (Phosphate buffered saline) for 5 minutes at room temperature. Five hundred […] aliquots of blood are incubated with either 2 μL of vehicle (DMSO) or 2 μL of a test compound at final concentrations varying from 10 nM to 30 μM for 24 hours at 37° C. At the end of the incubation, the blood is centrifuged at 12,000×g for 5 minutes to obtain plasma. A 100 μL aliquot of plasma is mixed with 400 μL of methanol for protein precipitation. The supernatant is obtained and is assayed for PGE2 using a radioimmunoassay kit (Amersham, RPA#530) after conversion of PGE2 to its methyl oximate derivative according to the manufacturer's procedure. […]

COX-2 [2] = target: T1, COX-2; assay: cell-based; conditions: CHO[hCOX-2] cells, 10 μM AA, 15 min preincubation; read-out: COX-2 (IC50 mM) CHO
Description: For cyclooxygenase assays, CHO[hCOX-1] cells from suspension cultures and CHO[hCOX-2] cells prepared by trypsinization of adherent cultures are harvested by centrifugation (300×g, 10 min) and washed once in HBSS containing 15 mM HEPES, pH 7.4, and resuspended in HBSS, 15 mM HEPES, pH 7.4, at a cell concentration of 1.5×10^6 cells/ml. Drugs to be tested are dissolved in DMSO to 66.7-fold the highest test drug concentration. […] Cells (0.3×10^6 cells in 200 μl) are preincubated with 3 μl of the test drug or DMSO vehicle for 15 min at 37° C. Working solutions of peroxide-free AA (5.5 μM and 110 μM AA for the CHO [hCOX-1] and CHO [COX-2] assays, respectively) are prepared by a 10-fold dilution of a concentrated AA solution in ethanol into HBSS containing 15 mM HEPES, pH 7.4. Cells are then challenged in the presence or absence of drug with the AA/HBSS solution to yield a final concentration of 0.5 μM AA in the CHO[hCOX-1] assay and a final concentration of 10 μM AA in the CHO[hCOX-2] assay. The reaction is terminated by the addition of 10 μl 1 N HCl followed by neutralization with 20 μl of 0.5 N NaOH. The samples are centrifuged at 300 ×g at 4° C. for 10 min, and an aliquot of the clarified supernatant is appropriately diluted for the determination of PGE2 levels using an enzyme-linked immunoassay for PGE2 (Correlate PGE2 enzyme immunoassay kit, Assay Designs, Inc.). Cyclooxygenase activity in the absence of test compounds is determined as the difference in PGE2 levels of cells challenged with arachidonic acid versus the PGE2 levels in cells mock-challenged with ethanol vehicle. Inhibition of PGE2 synthesis by test compounds is calculated as a percentage of the activity in the presence of drug versus the activity in the positive control samples.

COX-1, sequence (P23219 24-599): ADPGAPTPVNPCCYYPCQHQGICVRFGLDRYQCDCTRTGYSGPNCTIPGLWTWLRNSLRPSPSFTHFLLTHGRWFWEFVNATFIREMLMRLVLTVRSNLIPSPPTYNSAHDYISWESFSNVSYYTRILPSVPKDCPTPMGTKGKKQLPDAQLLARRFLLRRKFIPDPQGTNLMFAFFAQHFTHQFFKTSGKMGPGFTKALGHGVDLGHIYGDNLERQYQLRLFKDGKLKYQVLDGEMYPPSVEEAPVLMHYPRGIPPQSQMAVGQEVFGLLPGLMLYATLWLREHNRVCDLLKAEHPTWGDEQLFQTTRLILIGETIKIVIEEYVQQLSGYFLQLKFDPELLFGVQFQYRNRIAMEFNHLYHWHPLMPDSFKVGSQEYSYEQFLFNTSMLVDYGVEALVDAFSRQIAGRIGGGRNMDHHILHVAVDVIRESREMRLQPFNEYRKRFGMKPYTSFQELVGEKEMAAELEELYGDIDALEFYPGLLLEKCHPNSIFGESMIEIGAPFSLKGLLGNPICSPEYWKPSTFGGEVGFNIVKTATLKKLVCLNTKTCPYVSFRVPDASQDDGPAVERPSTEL

SMILES: CS(=O)(=O)c1ccc(-c2cc(C(F)(F)F)cnc2O[C@@H]2CCC[C@@H]2O)cc1 (relative stereo) [Example 29, 2-(cis-2-Hydroxycyclopentyloxy)-3-(4-methylsulfonyl)phenyl-5-trifluoromethylpyridine]
- IC50 (COX-1): > 0.01 mM

SMILES: CS(=O)(=O)c1ccc(-c2cc(C(F)(F)F)cnc2O[C@H]2CCC[C@@H]2O)cc1 (relative stereo) [Example 30, 2-(trans-2-Hydroxycyclopentyloxy)-3-(4-methylsulfonyl)phenyl-5-trifluoromethylpyridine]
- IC50 (COX-1): 0.003 to 0.01 mM

SMILES: C[C@]1(O)CCC[C@H]1Oc1ncc(C(F)(F)F)cc1-c1ccc(S(N)(=O)=O)cc1 (relative stereo) [Example 33, 3-(4-aminosulfonyl)phenyl-2-(cis-2-hydroxy-2-methylcyclopentyloxy)-5-trifluoromethylpyridine]
- IC50 (COX-1): 0.01 mM
- IC50 (COX-2 [1]): 0.0037 mM
- IC50 (COX-2 [2]): 40 nM

SMILES: C[C@]1(O)CCC[C@H]1Oc1ncc(Cl)cc1-c1ccc(S(C)(=O)=O)cc1 (relative stereo) [Example 34, 5-Chloro-2-(cis-2-hydroxy-2-methylcyclopentyloxy)-3-(4-methylsulfonyl)phenylpyridine]
- IC50 (COX-1): > 0.01 mM
- IC50 (COX-2 [1]): 0.0017 mM
- IC50 (COX-2 [2]): 100 nM

SMILES: C[C@@]1(O)CCC[C@H]1Oc1ncc(C(F)(F)F)cc1-c1ccc(S(C)(=O)=O)cc1 (relative stereo) [Example 35, 2-(trans-2-Hydroxy-2-methylcyclopentyloxy)-3-(4-methylsulfonyl)phenyl-5-trifluoromethylpyridine]
- IC50 (COX-1): 0.001 to 0.003 mM

SMILES: CC[C@]1(O)CCC[C@H]1Oc1ncc(C(F)(F)F)cc1-c1ccc(S(C)(=O)=O)cc1 (relative stereo) [Example 36, 2-(cis-2-Hydroxy-2-ethylcyclopentyloxy)-3-(4-methylsulfonyl)phenyl-5-trifluoromethylpyridine]
- IC50 (COX-1): > 0.01 mM
- IC50 (COX-2 [1]): 0.0031 mM
- IC50 (COX-2 [2]): 170 nM

SMILES: C[C@@]1(O)CCCC[C@@H]1Oc1ncc(C(F)(F)F)cc1-c1ccc(S(C)(=O)=O)cc1 (relative stereo) [Example 37, 2-(cis-2-Hydroxy-2-methylcyclohexyloxy)-3-(4-methylsulfonyl)phenyl-5-trifluoromethylpyridine]
- IC50 (COX-1): > 0.01 mM
- IC50 (COX-2 [1]): 0.0065 mM
- IC50 (COX-2 [2]): 570 nM

SMILES: CCC(C)(O)CSc1ncc(C(F)(F)F)cc1-c1ccc(S(C)(=O)=O)cc1 (single isomer, unassigned; (+)) [Example 45, (+)-2-(2-Hydroxy-2-methyl-1-thiobutyloxy)-3-(4-methylsulfonyl)phenyl-5-trifluoromethylpyridine]
- IC50 (COX-1): 0.003 to 0.01 mM

SMILES: CCC(C)(O)CSc1ncc(C(F)(F)F)cc1-c1ccc(S(C)(=O)=O)cc1 (single isomer, unassigned; (-)) [Example 46, (-)-2-(2-Hydroxy-2-methyl-1-thiobutyloxy)-3-(4-methylsulfonyl)phenyl-5-trifluoromethylpyridine]
- IC50 (COX-1): 0.001 to 0.003 mM

SMILES: COCCOc1ncc(C(F)(F)F)cc1-c1ccc(S(C)(=O)=O)cc1 [Example 2, 2-(2-Methoxy)ethoxy-3-(4-methylsulfonyl)phenyl-5-trifluoromethylpyridine]
- IC50 (COX-1): 0.001 to 0.003 mM
- IC50 (COX-2 [1]): 0.0013 mM
- IC50 (COX-2 [2]): 20 nM

SMILES: CC(C)(O)COc1ncc(C(F)(F)F)cc1-c1ccc(S(C)(=O)=O)cc1 [Example 4, 2-(2-Hydroxy-2-methyl-1-propyloxy)-3-(4-methylsulfonyl)phenyl-5-trifluoromethylpyridine]
- IC50 (COX-1): > 0.1 mM
- IC50 (COX-2 [1]): 0.0008 mM
- IC50 (COX-2 [2]): 150 nM

SMILES: CC(C)(O)COc1ncc(Cl)cc1-c1ccc(S(C)(=O)=O)cc1 [Example 5, 5-Chloro-2-(2-hydroxy-2-methyl-1-propyloxy)-3-(4-methylsulfonyl)phenylpyridine]
- IC50 (COX-1): > 0.1 mM
- IC50 (COX-2 [1]): 0.0036 mM
- IC50 (COX-2 [2]): 110 nM

SMILES: COC(C)(C)COc1ncc(C(F)(F)F)cc1-c1ccc(S(C)(=O)=O)cc1 [Example 6, 2-(2-Methoxy-2-methyl-1-propyloxy)-3-(4-methylsulfonyl)phenyl-5-trifluoromethylpyridine]
- IC50 (COX-1): 0.003 to 0.01 mM
- IC50 (COX-2 [1]): < 0.0004 mM
- IC50 (COX-2 [2]): 30 nM

SMILES: CCC(C)(O)COc1ncc(C(F)(F)F)cc1-c1ccc(S(C)(=O)=O)cc1 (centres unmarked) [Example 7, 2-(2-Hydroxy-2-methyl-1-butyloxy)-3-(4-methylsulfonyl)phenyl-5-trifluoromethylpyridine]
- IC50 (COX-1): > 0.01 mM
- IC50 (COX-2 [1]): 0.001 mM
- IC50 (COX-2 [2]): 130 nM

SMILES: CCC(O)(CC)COc1ncc(C(F)(F)F)cc1-c1ccc(S(C)(=O)=O)cc1 [Example 8, 2-(2-Hydroxy-2-ethyl-1-butyloxy)-3-(4-methylsulfonyl)phenyl-5-trifluoromethylpyridine]
- IC50 (COX-1): > 0.01 mM
- IC50 (COX-2 [1]): 0.0011 mM
- IC50 (COX-2 [2]): 190 nM

SMILES: CCC(O)(CC)COc1ncc(Cl)cc1-c1ccc(S(C)(=O)=O)cc1 [Example 9, 5-Chloro-2-(2-hydroxy-2-ethyl-1-butyloxy)-3-(4-methylsulfonyl)phenylpyridine]
- IC50 (COX-1): > 0.01 mM
- IC50 (COX-2 [1]): 0.0016 mM
- IC50 (COX-2 [2]): 70 nM

SMILES: CS(=O)(=O)c1ccc(-c2cc(C(F)(F)F)cnc2OCC2(O)CC2)cc1 [Example 11, 2-(1-Hydroxycyclopropyl)methoxy-3-(4-methylsulfonyl)phenyl-5-trifluoromethylpyridine]
- IC50 (COX-1): 0.01 mM
- IC50 (COX-2 [1]): 0.0016 mM
- IC50 (COX-2 [2]): 90 nM

SMILES: CS(=O)(=O)c1ccc(-c2cc(C(F)(F)F)cnc2OCC2(O)CCC2)cc1 [Example 12, 2-(1-Hydroxycyclobutyl)methoxy-3-(4-methylsulfonyl)phenyl-5-trifluoromethylpyridine]
- IC50 (COX-1): > 0.01 mM
- IC50 (COX-2 [1]): 0.0013 mM
- IC50 (COX-2 [2]): 50 nM

SMILES: C[C@H](Oc1ncc(C(F)(F)F)cc1-c1ccc(S(C)(=O)=O)cc1)C(C)(C)O [Example 16, 2-((2S)-3-Hydroxy-3-methyl-2-butyloxy)-3-(4-methylsulfonyl)phenyl-5-trifluoromethylpyridine]
- IC50 (COX-1): > 0.01 mM
- IC50 (COX-2 [1]): 0.0006 mM
- IC50 (COX-2 [2]): 430 nM

SMILES: C[C@@H](Oc1ncc(Cl)cc1-c1ccc(S(C)(=O)=O)cc1)C(C)(C)O [Example 18, 5-Chloro-2-((2R)-3-Hydroxy-3-methyl-2-butyloxy)-3-(4-methylsulfonyl)phenylpyridine]
- IC50 (COX-1): > 0.01 mM
- IC50 (COX-2 [1]): 0.0004 mM
- IC50 (COX-2 [2]): 80 nM
